Source: PubChem BioAssay (NCI)
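1) Cells in 96-well plates. 2) Compound, 48 h, 5 concentrations. 3) Linear interpolation between surrounding doses. 4) Unreached endpoint = highest concentration. GI50 is the concentration that inhibits growth by half. Definition used: TGI = concentration required for complete inhibition of growth.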

Legend:
Assay in all cases: NCI-60 cell line screen, 48 h
[1] = system: COLO 205 colon
[2] = system: MCF7 breast
[3] = system: HOP-92 NSCLC
[4] = system: TK-10 renal
[5] = system: HCT-15 colon
[6] = system: CCRF-CEM leukemia
[7] = system: UACC-257 melanoma
[8] = system: OVCAR-5 ovarian
[9] = system: SNB-19 CNS
[10] = system: SF-295 CNS
[11] = system: CAKI-1 renal
[12] = system: NCI-H23 lung
[13] = system: MOLT-4 leukemia
[14] = system: LOX IMVI melanoma
[15] = system: NCI-H226 lung
[16] = system: T-47D breast
[17] = system: SN12C renal
[18] = system: SK-MEL-2 melanoma
[19] = system: NCI-H522 lung
[20] = system: ACHN renal
[21] = system: SK-OV-3 ovarian
[22] = system: K-562 leukemia
[23] = system: UACC-62 melanoma
[24] = system: SF-539 CNS
[25] = system: HCC-2998 colon
[26] = system: UO-31 renal
[27] = system: SK-MEL-5 melanoma
[28] = system: PC-3 prostate
[29] = system: OVCAR-4 ovarian
[30] = system: U251 CNS
[31] = system: SNB-75 CNS
[32] = system: OVCAR-8 ovarian
[33] = system: NCI/ADR-RES ovarian
[34] = system: NCI-H460 lung
[35] = system: SW-620 colon
[36] = system: KM12 colon
[37] = system: HCT-116 colon
[38] = system: BT-549 breast
[39] = system: HT29 colon
[40] = system: SK-MEL-28 melanoma
[41] = system: M14 melanoma
[42] = system: OVCAR-3 ovarian
[43] = system: HS 578T breast
[44] = system: RPMI-8226 leukemia
[45] = system: IGROV1 ovarian
[46] = system: RXF 393 renal
[47] = system: A549 NSCLC
[48] = system: SR leukemia
[49] = system: MDA-MB-231 breast
[50] = system: MDA-MB-435
[51] = system: 786-0 renal
[52] = system: SF-268 CNS
[53] = system: HOP-62 NSCLC
[54] = system: DU-145 prostate
[55] = system: MALME-3M melanoma
[56] = system: HL-60(TB) leukemia
[57] = system: A498 renal

O=C1/C(=C\c2ccc(Br)cc2)CN(C(=O)c2ccccc2F)C/C1=C\c1ccc(Br)cc1
GI50 [1]: 1910 nM | TGI [1]: 3.82 µM | GI50 [2]: 308 nM | TGI [2]: 1380 nM | GI50 [3]: 2210 nM | TGI [3]: 6.76 µM | GI50 [4]: 2840 nM | TGI [4]: 7.46 µM | GI50 [5]: 1910 nM | TGI [5]: 6.65 µM | GI50 [6]: 854 nM | TGI [6]: > 26.5 µM | GI50 [7]: 2350 nM | TGI [7]: 6.59 µM | GI50 [8]: 2450 nM | TGI [8]: 7.06 µM | GI50 [9]: 2060 nM | TGI [9]: 6.65 µM | GI50 [10]: 2180 nM | TGI [10]: 5.64 µM | GI50 [11]: 3.05 µM | TGI [11]: 20 µM | GI50 [12]: 2490 nM | TGI [12]: 6.39 µM | GI50 [13]: 2830 nM | TGI [13]: > 29.5 µM | GI50 [14]: 334 nM | TGI [14]: 1010 nM | GI50 [15]: 5.07 µM | TGI [15]: 13.6 µM | GI50 [16]: 3.47 µM | TGI [16]: 24.1 µM | GI50 [17]: 1980 nM | TGI [17]: 4.92 µM | GI50 [18]: 4.77 µM | TGI [18]: 17.5 µM | GI50 [19]: 2150 nM | TGI [19]: 4.94 µM | GI50 [20]: 1950 nM | TGI [20]: 3.93 µM | GI50 [21]: 2430 nM | TGI [21]: 5.71 µM | GI50 [22]: 1120 nM | TGI [22]: > 25.1 µM | GI50 [23]: 1760 nM | TGI [23]: 4.03 µM | GI50 [24]: 1750 nM | TGI [24]: 3.22 µM | GI50 [25]: 1650 nM | TGI [25]: 3.16 µM | GI50 [26]: 1530 nM | TGI [26]: 3.16 µM | GI50 [27]: 1930 nM | TGI [27]: 4.04 µM | GI50 [28]: 1730 nM | TGI [28]: 4.21 µM | GI50 [29]: 1960 nM | TGI [29]: 5.01 µM | GI50 [30]: 1330 nM | TGI [30]: 2690 nM | GI50 [31]: 2030 nM | TGI [31]: 7.44 µM | GI50 [32]: 2840 nM | TGI [32]: 15.7 µM | GI50 [33]: 2900 nM | TGI [33]: 17.7 µM | GI50 [34]: 3.1 µM | TGI [34]: 11.6 µM | GI50 [35]: 913 nM | TGI [35]: 2950 nM | GI50 [36]: 646 nM | TGI [36]: 2060 nM | GI50 [37]: 202 nM | TGI [37]: 417 nM | GI50 [38]: 1820 nM | TGI [38]: 3.56 µM | GI50 [39]: 610 nM | TGI [39]: 2170 nM | GI50 [40]: 2290 nM | TGI [40]: 5.65 µM | GI50 [41]: 1790 nM | TGI [41]: 3.78 µM | GI50 [42]: 1910 nM | TGI [42]: 3.52 µM | GI50 [43]: 2150 nM | TGI [43]: 6.76 µM | GI50 [44]: 119 nM | TGI [44]: 903 nM | GI50 [45]: 2290 nM | TGI [45]: 4.89 µM | GI50 [46]: 1600 nM | TGI [46]: 3.08 µM | GI50 [47]: 2210 nM | TGI [47]: 6.16 µM | GI50 [48]: 339 nM | TGI [48]: 3.2 µM | GI50 [49]: 2730 nM | TGI [49]: 7.89 µM | GI50 [50]: 1100 nM | TGI [50]: 3.33 µM | GI50 [51]: 1690 nM | TGI [51]: 3.13 µM | GI50 [52]: 2810 nM | TGI [52]: 8.83 µM | GI50 [53]: 1830 nM | TGI [53]: 3.82 µM | GI50 [54]: 3.79 µM | TGI [54]: 16.8 µM | GI50 [55]: 2610 nM | TGI [55]: 7.91 µM | GI50 [56]: 1740 nM | TGI [56]: 5.29 µM | GI50 [57]: 2870 nM | TGI [57]: 10.4 µM
